Data set [1] in a line: Qualitative solubility of the salts (observed on crystallisation from water). The conditions noted are these: in water, partly relative to the salt of the other Articain enantiomer.
Data set [2] can be described thus: Pharmacokinetics after intramuscular administration; antibiotic content in blood/serum by agar diffusion test. The data set is classed as in vivo, Hund. The source says: Zur Bestimmung der pharmakokinetischen Eigenschaften der erfindungsgemäßen Cephalosporin-Articainsalze wurden unter […] Untersuchungen an Mäusen und Hunden durchgeführt. Die […] und die korrespondierenden Alkalisalze der Cephalosporine wurden in therapeutisch üblichen Dosierungen intramuskulär verabreicht. Zu festgelegten Zeitpunkten nach der Injektion des Antibiotikums wurden den Versuchstieren Blutproben entnommen und der Antibiotika-Gehalt im Blut bzw. Serum mit Hilfe des Agardiffusionstestes bestimmt. Die pharmakokinetischen […] Computerprogramms ermittelt.
A general note: A growth-free zone around the sample is the usual read-out of agar diffusion tests.

In the case of `CCCNC(C)C(=O)Nc1c(C)csc1C(=O)OC.CON=C(C(=O)NC1C(=O)N2C(C(=O)O)=C(COC(N)=O)CSC12)c1ccco1` (single isomer, unassigned; (+)) [(+) Articain-Cefuroximsalz], in data set [1], the Löslichkeit entry is recorded as “schwerlösliche”.
Consider `CCCNC(C)C(=O)Nc1c(C)csc1C(=O)OC.CON=C(C(=O)NC1C(=O)N2C(C(=O)O)=C(COC(C)=O)CSC12)c1csc(N)n1` (single isomer, unassigned; (+)) [(+)-Articain-Cefotaxim, ( +)-Articain-Cefotaximsalz], for which the Halbwertszeit in data set [2] (dog, in vivo, im) is listed as 4,1 Stunden.
Consider `CCCNC(C)C(=O)Nc1c(C)csc1C(=O)OC.CON=C(C(=O)NC1C(=O)N2C(C(=O)O)=CCSC12)c1csc(N)n1` (single isomer, unassigned; (-)) [(-)-Articain-Ceftizoximsalz], for which the Löslichkeit result in data set [1] is “leichter löslich in Wasser”.
As to `CCCCOC(=O)c1scc(C)c1NC(=O)C(C)NCCC.CO/N=C(\C(=O)N[C@@H]1C(=O)N2C(C(=O)O)=C(COC(C)=O)CS[C@H]12)c1csc(N)n1` [Beispiel 10, Cefotaximsalz von (+ )n-Butyl 4-methyl-3(2-n-propylaminopropionamido) thiophen-2-carboxylat], the Halbwertszeit in data set [2] (Hund, intramuscular application, blood/serum level by agar diffusion test) is listed as 6,6 Stunden.
Regarding `CO/N=C(\C(=O)N[C@@H]1C(=O)N2C(C(=O)O)=C(COC(C)=O)CS[C@H]12)c1csc(N)n1` [Cefotaxim, reference compound], the half-life in data set [2] (dog, im, Hund, intramuscular application, blood/serum level by agar diffusion test, read-out: Halbwertszeit (converted)) was 48 min.

The values above are taken from patent EP0603755A2, “Cephalosporin salts and processes for their preparation” (HOECHST AKTIENGESELLSCHAFT, priority 1992, dated 1994).
